Experimental data as given in patent US8324245B2, “Quinoline derivative and quinazoline derivative inhibiting self-phosphorylation of hepatocytus proliferator receptor, and medicinal composition containing the same” (Kyowa Hakko Kirin Co., Ltd., priority 2001, dated 2012).

Legend:
[1] = target: T1, met (HGF receptor) in human epidermal cancer cells A431 (Homo sapiens, UniProt P08581); assay: Inhibitory activity against met-autophosphorylation using ELISA method (1), HGF-stimulated A431 cells; type: cell-based; settings: HGF 50 ng/ml stimulation, read-out: IC50 (concentration necessary for inhibiting 50% of met phosphorylation)
T1 construct: endogenous in cells; host or cells: A431 human epidermal cancer cells
Procedure: Human epidermal cancer cells A431 were cultured in an RPMI 1640 medium containing 10% fetal calf serum (purchased from GIBCO BRL) within a 5% carbon dioxide incubator until 50 to 90% confluent. Cells were cultured with RPMI medium containing 0.1% fetal calf serum in 96-well flat-bottom plate in an amount of 3×10^4 per well, and were incubated at 37° C. overnight. The medium was then replaced by a fresh RPMI medium containing 0.1% fetal calf serum. A solution of the test compound in dimethyl sulfoxide was added to each well, and the cells were incubated at 37° C. for additional one hr. A human recombinant hepatocyte growth factor (hereinafter abbreviated to “HGF”) was added to a final concentration of 50 ng/ml, and the stimulation of cells was carried out at 37° C. for 5 min. The medium was removed, the cells were washed with phosphate buffered saline (pH 7.4), and 50 μl of lysis buffer (20 mM HEPES (pH 7.4), 150 mM NaCl, 0.2% Triton X-100, 10% glycerol, 5 mM sodium orthovanadylate, 5 mM disodium ethylenediaminetetraacetate, and 2 mM Na4P2O7) was then added thereto. […]
Separately, phosphate buffered saline (50 μl, pH 7.4) containing 5 μg/ml of anti-phospho-tyrosine antibody (PY20; purchased from Transduction Laboratories) was added to a microplate for ELISA (Maxisorp; purchased from NUNC), followed by gentle agitation at 4° C. overnight to coat the surface of the wells with the antibody. […] After washing, the whole quantity of the cell extract was transferred to the wells, and the plate was then allowed to incubate at 4° C. overnight. […] After a suitable level of color development, a reaction termination solution was added to stop the reaction, and the absorbance at 450 nm was measured with a microplate reader. The met-phosphorylation inhibitory activity for each well was determined by presuming the absorbance with the addition of HGF and the vehicle to compounds to be 0% met-phosphorylation inhibitory activity and the absorbance with the addition of the vehicle to compounds and without HGF to be 100% met phosphorylation inhibitory activity. […]

[2] = target: T2, met (HGF receptor) in human gastric cancer cells MKN45 (Homo sapiens, UniProt P08581); assay: Inhibitory activity against met-autophosphorylation using ELISA method (2), MKN45 cells, HGF-independent; type: cell-based
T2 construct: endogenous in cells; host or cells: MKN45 human gastric cancer cells
Procedure, shortened: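 MKN45 cells, 3×10^4 per well in RPMI with 0.1% FCS overnight, were exposed to compound in DMSO for 1 h at 37 °C without HGF. Lysates were captured on anti-phosphotyrosine (PY20) plates, Met detected with anti-Met and peroxidase secondary antibody, absorbance at 450 nm.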

[3] = test system: Human gastric cancer cells (MKN 45); assay: Tumor growth inhibitory activity against human gastric cancer cells (MKN 45) in nude mice; type: in vivo; settings: oral, twice a day for 5 days
Procedure: Human gastric cancer cells (MKN 45) were transplanted into nude mice. […] The test compound suspended in 0.5% methylcellulose was orally administered twice a day for 5 days.
Only 0.5% methylcellulose was administered to the control group in the manner as in the test groups. The tumor growth inhibition rate (TGIR) was calculated as follows: The tumor growth inhibition rate (TGIR)=(1−TX/CX)×100 wherein CX represents the relative tumor volume at day X for the control group when the tumor volume at the day of the start of the administration was presumed to be 1; and TX represents the relative tumor volume for test compound administration groups.

[4] = test system: Human gastric cancer cells (MKN 45); assay: Tumor growth inhibitory activity against various human tumor cells in nude mice: MKN 45; type: in vivo; settings: Mus musculus, MKN-45, po, 120 h, MKN45, Oral, 5 days; read-out: TGIR
Procedure: (§1) Human gastric cancer cells (MKN 45) (obtained from RIKEN), human brain tumor cells (U87MG) (obtained from ATCC), human pancreatic cancer cells (KP4) (obtained from RIKEN), human pancreatic cancer cells (SUIT-2) (obtained from National Kyushu Cancer Center), and human signet-ring type gastric cancer cells (NUGC-4) (obtained from RIKEN), or human lung cancer cells (LC6) (obtained from Central Laboratories for Experimental Animals) were transplanted into nude mice. […] The test compound suspended in 0.5% methylcellulose was orally administered once or twice a day for 5 days. Only 0.5% methylcellulose was administered to the control group in the manner as in the test groups. Alternatively, the test compound dissolved in physiological saline (with a 1 N aqueous hydrochloric acid solution added thereto) was intraveneously injected once a day for 5 days, and only physiological saline (with a 1 N aqueous hydrochloric acid solution added thereto) was administered to the control group in the same manner as in the test groups. The tumor growth inhibition rate (TGIR) was calculated as follows: The tumor growth inhibition rate (TGIR)=(1−TX/CX)×100 wherein CX represents the relative tumor volume at the 5th day for the control group when the tumor volume at the day of the start of the administration was presumed to be 1; and TX represents the relative tumor volume for test compound administration groups.

[5] = test system: Human brain tumor cells (U87MG); assay: Tumor growth inhibitory activity against various human tumor cells in nude mice: U87MG; type: in vivo; settings: Oral, 30 × 2 mg/kg × number of times, 5 days
Procedure: as §1

[6] = test system: human lung cancer cells (LC6); assay: Tumor growth inhibitory activity against various human tumor cells in nude mice: LC6; type: in vivo; settings: LC6, Oral, 30 × 2 mg/kg × number of times, 5 days
Procedure: as §1

T2 sequence (P08581 25-1390): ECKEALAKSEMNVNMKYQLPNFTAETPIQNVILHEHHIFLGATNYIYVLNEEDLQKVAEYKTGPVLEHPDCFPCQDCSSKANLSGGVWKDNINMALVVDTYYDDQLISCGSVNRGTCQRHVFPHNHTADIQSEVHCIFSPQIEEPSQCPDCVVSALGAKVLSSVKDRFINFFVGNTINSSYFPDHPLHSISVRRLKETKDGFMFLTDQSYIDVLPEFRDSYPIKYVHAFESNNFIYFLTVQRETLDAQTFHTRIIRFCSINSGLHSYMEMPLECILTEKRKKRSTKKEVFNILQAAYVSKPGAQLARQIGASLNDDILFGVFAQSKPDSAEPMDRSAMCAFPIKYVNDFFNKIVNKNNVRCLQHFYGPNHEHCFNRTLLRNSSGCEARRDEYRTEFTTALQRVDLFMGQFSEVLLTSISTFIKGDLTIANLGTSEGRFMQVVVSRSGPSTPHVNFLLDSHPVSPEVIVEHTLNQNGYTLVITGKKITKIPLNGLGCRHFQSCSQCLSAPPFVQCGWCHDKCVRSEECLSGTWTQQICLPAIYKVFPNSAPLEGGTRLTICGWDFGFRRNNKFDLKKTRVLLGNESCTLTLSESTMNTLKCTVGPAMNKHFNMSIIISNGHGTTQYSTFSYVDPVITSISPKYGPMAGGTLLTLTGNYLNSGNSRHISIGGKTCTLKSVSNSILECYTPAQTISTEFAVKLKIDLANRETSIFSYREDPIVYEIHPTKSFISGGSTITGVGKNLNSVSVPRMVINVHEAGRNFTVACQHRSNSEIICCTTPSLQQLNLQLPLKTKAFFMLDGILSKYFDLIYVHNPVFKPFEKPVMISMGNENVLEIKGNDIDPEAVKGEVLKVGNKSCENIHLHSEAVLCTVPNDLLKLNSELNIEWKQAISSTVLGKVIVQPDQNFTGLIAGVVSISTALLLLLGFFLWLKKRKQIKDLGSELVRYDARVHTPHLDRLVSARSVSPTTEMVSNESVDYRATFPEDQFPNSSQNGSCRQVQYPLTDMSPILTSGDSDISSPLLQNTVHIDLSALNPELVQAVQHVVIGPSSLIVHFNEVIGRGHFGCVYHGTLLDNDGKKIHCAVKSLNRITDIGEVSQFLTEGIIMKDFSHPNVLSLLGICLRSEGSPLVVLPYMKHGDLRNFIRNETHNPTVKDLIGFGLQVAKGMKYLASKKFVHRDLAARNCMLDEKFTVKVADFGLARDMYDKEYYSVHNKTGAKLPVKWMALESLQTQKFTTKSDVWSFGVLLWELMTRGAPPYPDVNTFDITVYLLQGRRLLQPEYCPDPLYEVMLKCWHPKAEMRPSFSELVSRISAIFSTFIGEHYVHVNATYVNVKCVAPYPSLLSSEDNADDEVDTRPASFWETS
T1 sequence (P08581 25-1390): as above

| SMILES | IC50 [2] [nM] | inhibition in vivo at 30 mg/kg [4] [%] | also measured |
| --- | --- | --- | --- |
| COc1cc2c(Oc3ccc(NC(=O)NC(=O)Cc4ccccc4)cc3F)ccnc2cc1OCCCN1CCOCC1 [Example 11, 1-{3-fluoro-4-[6-methoxy-7-(3-morpholin-4-yl-propoxy)quinolin-4-yloxy]phenyl}-3-phenylacetylurea] | 20.2 | 63 | IC50 [1]: 58.1 nM; TGIR (tumor growth inhibition rate) ([3]; dose 10 mg/kg/time): 23%; TGIR (tumor growth inhibition rate) ([3]; dose 30 mg/kg/time): 52%; TGIR [5]: 62%; TGIR [6]: 26% |
| COc1cc2c(Oc3ccc(NC(=S)NC(=O)Cc4ccccc4)cc3F)ccnc2cc1OCCCN1CCOCC1 [Example 268, N-{3-fluoro-4-[6-methoxy-7-(3-morpholin-4-yl-propoxy)quinolin-4-yloxy]phenyl}-N′-phenylacetyl-thiourea] | 22.8 | – | TGIR (tumor growth inhibition rate) ([3]; dose 30 mg/kg/time): 81%; TGIR [5]: 74%; TGIR [6]: 35% |
| COc1cc2c(Oc3ccc(NC(=S)NC(=O)Cc4ccc(F)cc4)cc3F)ccnc2cc1OCCN1CCOCC1 [Example 277, 1-{3-Fluoro-4-[6-methoxy-7-(2-morpholin-4-yl-ethoxy)-quinolin-4-yloxy]-phenyl}-3-[2-(4-fluorophenyl)-acetyl]-thiourea] | 20.4 | 17 | – |
| COc1cc2c(Oc3ccc(NC(=S)NC(=O)Cc4ccc(F)cc4)cc3F)ccnc2cc1OCCN1CCC(CO)CC1 [Example 282, 1-(3-Fluoro-4-{7-[2-(4-hydroxymethyl-piperidin-1-yl)ethoxy]-6-methoxy-quinolin-4-yloxy}-phenyl)-3-[2-(4-fluoro-phenyl)-acetyl]-thiourea] | 16.6 | 13 | – |
| COc1cc2c(Oc3ccc(NC(=S)NC(=O)Cc4ccccc4Cl)cc3F)ccnc2cc1OCCCN1CCOCC1 [Example 285, 1-[2-(2-Chloro-phenyl)-acetyl]-3-{3-fluoro-4-[6-methoxy-7-(3-morpholin-4-yl-propoxy)-quinolin-4-yloxy]-phenyl}-thiourea] | 75.3 | 66 | TGIR [6]: 48% |
| COc1cc2c(Oc3ccc(NC(=O)NC(=O)Cc4ccc(F)cc4)c(F)c3)ccnc2cc1OCCCN1CCOCC1 [Example 286, 1-{2-Fluoro-4-[6-methoxy-7-(3-morpholin-4-yl-propoxy)-quinolin-4-yloxy]-phenyl}-3-[2-(4-fluoro-phenyl)-acetyl]-urea] | 29.3 | 64 | TGIR [5]: 66%; TGIR [6]: 37% |
| COc1cc2c(Oc3ccc(NC(=S)NC(=O)Cc4ccccc4F)cc3F)ccnc2cc1OCCCN1CCOCC1 [Example 288, 1-{3-Fluoro-4-[6-methoxy-7-(3-morpholin-4-yl-propoxy)-quinolin-4-yloxy]-phenyl}-3-[2-(2-fluoro-phenyl)-acetyl]-thiourea] | 22.6 | 64 | – |
| COc1cc2c(Oc3ccc(NC(=S)NC(=O)Cc4cccc(F)c4)cc3Cl)ccnc2cc1OCCCN1CCOCC1 [Example 299, 1-{3-Chloro-4-[6-methoxy-7-(3-morpholin-yl-propoxy)-quinolin-4-yloxy]-phenyl}-3-[2-(3-fluoro-phenyl)-acetyl]-thiourea] | 43.5 | – | inhibition in vivo at 25 mg/kg [4]: 14% |
| COc1cc2c(Oc3ccc(NC(=S)NC(=O)Cc4ccccc4)cc3F)ccnc2cc1OCC(O)CN1CCOCC1 (stereo not shown) [Example 312, 1-{3-Fluoro-4-[7-(2-hydroxy-3-morpholin-4-yl-propoxy)-6-methoxy-quinolin-4-yloxy]-phenyl}-3-phenylacetyl-thiourea] | 19.1 | 75 | – |
| COc1cc2c(Oc3ccc(NC(=S)NC(=O)Cc4ccccc4Cl)cc3F)ccnc2cc1OCC(O)CN1CCOCC1 (stereo not shown) [Example 314, 1-[2-(2-Chloro-phenyl)-acetyl]-3-{3-fluoro-4-[7-(2-hydroxy-3-morpholin-4-yl-propoxy)-6-methoxy-quinolin-4-yloxy]-phenyl}-thiourea] | 23.2 | 38 | – |
| COc1cc2c(Oc3ccc(NC(=S)NC(=O)Cc4ccccc4F)cc3F)ccnc2cc1OCC(O)CN1CCOCC1 (stereo not shown) [Example 315] | 21 | 36 | – |
| COc1cc2c(Oc3ccc(NC(=S)NC(=O)Cc4cccc(Cl)c4)cc3F)ccnc2cc1OCC(O)CN1CCOCC1 (stereo not shown) [Example 320, 1-[2-(3-Chloro-phenyl)-acetyl]-3-{3-fluoro-4-[7-(2-hydroxy-3-morpholin-4-yl-propoxy)-6-methoxy-quinolin-4-yloxy]-phenyl}-thiourea] | 14 | 20 | – |
| COc1cc2c(Oc3ccc(NC(=S)NC(=O)Cc4cccc(F)c4)cc3F)ccnc2cc1OCC(O)CN1CCOCC1 (stereo not shown) [Example 323, 1-{3-Fluoro-4-[7-(2-hydroxy-3-morpholin-4-yl-propoxy)-6-methoxy-quinolin-4-yloxy]-phenyl}-3-[2-(3-fluoro-phenyl)-acetyl]-thiourea] | < 10 | 34 | – |
| COc1cc2c(Oc3ccc(NC(=S)NC(=O)Cc4ccc(Cl)cc4)cc3F)ccnc2cc1OCC(O)CN1CCOCC1 (stereo not shown) [Example 326, 1-[2-(4-Chloro-phenyl)-acetyl]-3-{3-fluoro-4-[7-(2-hydroxy-3-morpholin-4-yl-propoxy)-6-methoxy-quinolin-4-yloxy]-phenyl}-thiourea] | 13.1 | 17 | – |
| COc1cc2c(Oc3ccc(NC(=S)NC(=O)Cc4ccccc4)cc3F)ccnc2cc1OCC(O)CN1CCCCC1 (stereo not shown) [Example 331] | 22 | 40 | – |
| COc1cc2c(Oc3ccc(NC(=S)NC(=O)Cc4ccccc4)cc3F)ccnc2cc1OCC(O)CN1CCCC1 (stereo not shown) [Example 332, 1-{3-Fluoro-4-[7-(2-hydroxy-3-pyrrolidin-1-yl-propoxy)-6-methoxy-quinolin-4-yloxy]-phenyl}-3-(2-phenyl-acetyl)-thiourea] | 14.2 | 14 | – |
| COc1cc2c(Oc3ccc(NC(=S)NC(=O)Cc4ccccc4C)cc3F)ccnc2cc1OCC(O)CN1CCOCC1 (stereo not shown) [Example 333] | 21.1 | 75 | – |
| COc1cc2c(Oc3ccc(NC(=S)NC(=O)Cc4cccc(C)c4)cc3F)ccnc2cc1OCC(O)CN1CCOCC1 (stereo not shown) [Example 334] | 22.7 | 65 | – |
